According to patent publication EP4796551A1, “ZWITTERIONIC PHOSPHOLIPID COMPOUND AND LIPID NANOPARTICLE CONTAINING THE SAME” (National University Corporation Hokkaido University, priority 2023, dated 2025):

Legend:
liver [1] = test: mRNA introduction ability: luciferase activity in the liver after intravenous Fluc mRNA-LNP; assay type: in vivo, BALB/c mice; conditions: Fig. 2, n=3, LNP containing the phospholipid, 0.01 mg RNA/kg, livers collected 6 hours later
Experimental: Ethanol solutions containing each phospholipid, CL4F6, Chol, and PEG2000-dimirystoylglycerol (PEG-DMG) at the molar ratio of 10:50:40:1.0 were prepared at the total lipid concentration of 16 mM. For fluorescent labeling of LNPs, 0.5 mol% of DiI or DiR was added to the above solutions. The firefly luciferase (Fluc)-encoding mRNA (TriLink) was dissolved in a 25 mM acetate buffer (pH 4.0). LNPs were prepared by mixing the lipids in ethanol and RNA in an aqueous solution using an iLiNP device at a total flow rate (TFR) of 0.5 mL/min and a flow rate ratio (FRR) (RNA flow rate/lipid flow rate) of 3. The nitrogen to phosphate (N/P) ratio was adjusted to 6. Syringe pumps (Harvard apparatus) were used to control the flow rate of the solutions. […]
The mRNA-LNP formulations prepared in the above item (2) were intravenously administered to BALB/c mice at a dose of 0.01 mg RNA/kg, and the livers were collected by a conventional method 6 hours later. […] The supernatant was collected, and […] was measured by a luminometer (Luminescencer-PSN, ATTO Corporation) using Luciferase Assay System (Promega). The protein concentration was determined using a BCA protein assay kit (Pierce). Fluc activity was expressed as relative light units (RLU) per 1 mg of protein.

[2] = Lipid polymorphism by 31P NMR method (mixtures with POPC); assay type: physicochemical
Experimental: In order to examine the interaction between DOPE-Cx and PC and characteristics thereof, lipid polymorphism of the lipid suspension was evaluated by a ^31P NMR method. Since the rotational motion of lipid molecules in a lamellar phase which is a planar structure and a (inverted) hexagonal phase which is a tubular structure receives different restrictions respectively, a specific ^31P NMR spectrum is provided by chemical shift anisotropy. Specifically, the lamellar phase produces a broad […] peak, and the (inverted) hexagonal phase produces a broad […] peak.
First, DOPE or DOPE-C8 and 1-palmitoyl-2-oleoyl-sn-glycero-3-phosphocholine (POPC) were mixed at a predetermined ratio in 400 µL of chloroform (total lipid 16 µmol), and the solvent was removed by a rotary evaporator to form a lipid membrane. The lipid membrane was hydrated with 500 µL of 20 mM HEPES buffer (pH 7.4, 130 mM NaCl) at 60°C. Then, the lipid dispersion was transferred to an NMR tube, and a ^31P NMR spectrum at room temperature was measured by a conventional method using an ECX 400P spectrometer (JEOL Ltd.).

liver [3] = test: EGFP expression in the liver after intravenous EGFP mRNA-LNP (CLSM); assay type: in vivo, BALB/c mice; conditions: Fig. 5, LNP containing the phospholipid, 1 mg RNA/kg, 24 hours later, compared with DSPC or DOPE LNP
Experimental: Further, an mRNA-LNP formulation was prepared in the same manner as in the above item (2) except that mRNA encoding EGFP (TriLink) was used as mRNA, and it was intravenously administered to BALB/c mice at a dose of 1 mg RNA/kg. Then, 24 hours later, the liver was collected by a conventional method, and expression of EGFP was observed using a confocal laser scanning microscope (CLSM).

[4] = Ribogreen assay, mRNA encapsulation efficiency of LNP; assay type: physicochemical; conditions: mRNA-LNP formulation phospholipid:CL4F6:Chol:PEG-DMG 10:50:40:1.0, Fluc mRNA
Experimental: (§1) Ethanol solutions containing each phospholipid, CL4F6, Chol, and PEG2000-dimirystoylglycerol (PEG-DMG) at the molar ratio of 10:50:40:1.0 were prepared at the total lipid concentration of 16 mM. For fluorescent labeling of LNPs, 0.5 mol% of DiI or DiR was added to the above solutions. The firefly luciferase (Fluc)-encoding mRNA (TriLink) was dissolved in a 25 mM acetate buffer (pH 4.0). LNPs were prepared by mixing the lipids in ethanol and RNA in an aqueous solution using an iLiNP device at a total flow rate (TFR) of 0.5 mL/min and a flow rate ratio (FRR) (RNA flow rate/lipid flow rate) of 3. The nitrogen to phosphate (N/P) ratio was adjusted to 6. Syringe pumps (Harvard apparatus) were used to control the flow rate of the solutions. The resulting LNP solutions were then dialyzed for 2 hours or more at 4 °C against phosphate buffered saline without Ca^2+ and Mg^2+ (PBS(-)) using Spectra/Por 4 dialysis membranes (molecular weight cut-off 12,000-14,000 Da, Spectrum Laboratories). The LNP solutions were concentrated by ultrafiltration using an Amicon Ultra-15 unit (MWCO 100 kDa, Millipore) as needed.
(§2) The ζ-average particle size, polydispersity index (PDI), and ζ-potential of the LNPs were measured by means of a Zetasizer Nano ZS ZEN3600 instrument (Malvern Instruments). The encapsulation efficiency and total concentration of mRNA were measured by a Ribogreen assay according to a conventional method.

[5] = Particle size, PDI and ζ-potential of mRNA-LNP (Zetasizer Nano ZS); assay type: physicochemical; conditions: mRNA-LNP formulation phospholipid:CL4F6:Chol:PEG-DMG 10:50:40:1.0, Fluc mRNA
Experimental: as §1, §2

erythrocytes (RBCs) = test: Membrane disruption ability of LNP (hemolytic activity); assay type: cell-based, BALB/c mice; conditions: pH 6.0, 37°C, 30 minutes, Fig. 6B
Experimental: In order to use as an index of endosomal escape efficiency of LNP, membrane disruption ability of LNP was evaluated using erythrocytes as a model biological membrane. Specifically, fresh erythrocytes (RBCs) were collected from BALB/c mice and suspended in a buffer solution (10 mM malic acid, 10 mM HEPES, 10 mM MES, and 120 mM NaCl) at pH 5.0, 6.0, or 7.4. The RBC suspension was mixed with the same amount of each LNP suspension (containing DOPE-C8, DOPE, or DSPC as phospholipid) and reacted at 37°C for 30 minutes. Then, the supernatant was collected, absorbance at 545 nm was measured, and hemoglobin leaked from the erythrocytes was quantified. As a positive control, a sample hemolyzed with 0.5 w/v% Triton X-100 was prepared, and as a negative control, a sample not containing LNP was prepared. The ratio of the absorbance of the test sample to the absorbance of the positive control was expressed as % hemolytic activity.

[6] = Lipid polymorphism by SAXS method; assay type: physicochemical; conditions: DOPE-C8 and POPC at a molar ratio of 1:1, Fig. 10
Experimental: In order to identify the phase of the lipid suspension obtained by mixing DOPE-C8 and POPC at a molar ratio of 1:1, measurement by a small-angle X-ray scattering (SAXS) method was performed by a conventional method using a NANO-Viewer apparatus (Rigaku Corporation).

[7] = lipid alone (lipid:POPC=1:0), 20 mM HEPES pH 7.4, room temperature

CCCCCCCC/C=C\CCCCCCCC(=O)OC[C@H](COP(=O)(O)OCCNCCC(=O)OCCCCCCCC)OC(=O)CCCCCCC/C=C\CCCCCCCC [DOPE-C8, (R)-2,3-bis(oleoyloxy)propyl (2-((3-(octyloxy)-3-oxopropyl)ammonio)ethyl) phosphate]
luciferase activity in the liver (liver [1]): highest activity | lipid phase by 31P NMR spectrum ([2]; POPC content increased beyond 1:1, Fig. 7B): the peak derived from the lamellar phase became stronger in a POPC content-dependent manner | lipid phase by 31P NMR spectrum [2, 7]: spectrum derived from the inverted hexagonal phase | lipid phase by 31P NMR spectrum ([2]; lipid:POPC molar ratio 1:1, 20 mM HEPES pH 7.4, room temperature): sharp peak centered at 0 ppm | expression of EGFP in the liver (liver [3]): significantly higher expression of EGFP | mRNA encapsulation rate % ([4]; Table 1): 92.6% | mRNA encapsulation rate % ([4]; Table 3): 97.6% | Number average particle size (nm) ([5]; Table 1): 62 nm | PDI ([5]; Table 1): 0.21 | ζ-potential (mV) ([5]; Table 1): -5.6 mV | ζ-average particle size (nm) ([5]; Table 1, N/P 6): 94 nm | Number average particle size (nm) ([5]; Table 3): 55 nm | PDI ([5]; Table 3): 0.17 | ζ-average particle size (nm) ([5]; Table 3): 80 nm | ζ-potential (mV) ([5]; Table 3): -12.8 mV | membrane disruption activity (hemolytic activity) (erythrocytes (RBCs)): higher membrane disruption activity than the LNP containing DSPC | phase of the lipid suspension by SAXS [6]: Im3m type inverse bicontinuous cubic phase

CCCCCCCC/C=C\CCCCCCCC(=O)OC[C@H](COP(=O)(O)OCCN)OC(=O)CCCCCCC/C=C\CCCCCCCC [DOPE, 1,2-dioleoyl-sn-glycero-3-phosphoethanolamine, reference compound]
lipid phase by 31P NMR spectrum [2, 7]: spectrum derived from the inverted hexagonal phase | lipid phase by 31P NMR spectrum ([2]; lipid:POPC=9:1, 20 mM HEPES pH 7.4, room temperature): transition to the lamellar phase occurred | mRNA encapsulation rate % ([4]; Table 1): 93.0% | mRNA encapsulation rate % ([4]; Table 2): 92.8% | Number average particle size (nm) ([5]; Table 1): 57 nm | PDI ([5]; Table 1): 0.25 | ζ-potential (mV) ([5]; Table 1): -2.5 mV | ζ-average particle size (nm) ([5]; Table 1, N/P 6): 88 nm | Number average particle size (nm) ([5]; Table 2): 67 nm | PDI ([5]; Table 2): 0.13 | ζ-average particle size (nm) ([5]; Table 2): 95 nm | ζ-potential (mV) ([5]; Table 2): -2.9 mV | membrane disruption activity (hemolytic activity) (erythrocytes (RBCs)): higher membrane disruption activity than the LNP containing DSPC
